ChEMBL document CHEMBL3507680, “University of Dundee, Gates Library screen for HepG2 cell viability”

Test: Human HepG2 cell viability assay in 384 well format
Type: toxicity, cell-based
Parameters: dose 125 nL, time 70.5 hour; cytotoxicity at 70.5 h: concentration not given beside the values
Settings: HepG2 cells, read-out: Inhibition

Row | SMILES | cytotoxicity at 70.5 h [%]
1 | Cc1c(-c2nnc(SCC(=O)O)n2C(C)c2ccccc2)cnn1C (centres undefined) | -12.3
2 | CCCc1cc(CN(C)C2CCSCC2)n[nH]1 | 0.588
3 | CC1(c2[nH]ncc2C(N)=O)CCN(S(=O)(=O)c2ccccc2)CC1 | -2.57
4 | O=C(CCOc1ccccc1)N1CCC(Nc2cccnn2)CC1 | 1.59
5 | CN(c1ccc(C(C)(C)C)cc1)S(=O)(=O)c1cc(C(=O)O)cs1 | -10.9
6 | CC(=O)N1CCOC2(CCN(C(=O)c3cnoc3C)CC2)C1 | 2.68
7 | Cc1n[nH]c2nc(-c3cc(Br)ccc3O)cc(C(=O)O)c12 | 8.54
8 | Cn1cnnc1C1CCCN(C(=O)c2cc3ccccc3[nH]2)C1 (centres undefined) | -11.2
9 | CCn1ncc2c1C(COC)N(C(=O)c1ccsc1)CC2 (centres undefined) | -6.73
10 | CCc1nccn1CCC(=O)N1CCCC1c1cncc(NC)n1 (centres undefined) | 5.43
11 | Cc1nc(-c2ccccc2)ccc1C(=O)N1CCn2c(C)nnc2C1 | -11.8
12 | O=C([C@H]1CN(Cc2ccoc2)C[C@H]2OCC[C@@H]12)N1CCCCO1 | -4.73
13 | CCNC(=O)CN1CCN(c2cc(C)nc(-c3ccncc3)n2)CC1 | -0.76
14 | COc1cc(CNC(=O)NCCCF)cc(Br)c1OC | -2.35
15 | CC(c1ccccc1Cl)N(C)Cc1nc2c(cnn2C)c(=O)[nH]1 (centres undefined) | -2.36
16 | CC(C)CSCCCNC(=O)C1CCC1 | -2.26
17 | CN(Cc1nc2c(cnn2C)c(=O)[nH]1)Cc1ccco1 | 7.12
18 | CN1CC2(CCN(c3nc(N)nc4c3CCNC4)CC2)OC1=O | -8.95
19 | CN(Cc1ccc(Br)s1)Cn1nc(-c2ccccc2)oc1=O | -9.53
20 | CCOC1CCCN(C(=O)Nc2cnn(CC(F)F)c2)C1 (centres undefined) | -9.21
21 | Cc1ccc(N2CC[C@H](O)[C@@H]2Cc2cnn(C)c2)nn1 | -6.12
22 | COc1c[nH]c(C(=O)N2CCN(c3cccc(Cl)c3)CC2)cc1=O | -8.19
23 | O=C(NCc1cncc2c1CCN(Cc1ccccc1)C2)C1CC1 | 9.59

Row | SMILES | cytotoxicity at 70.5 h [%]
24 | O=C(CCCOc1ccccc1F)Nc1cc[nH]n1 | -6.95
25 | c1cc(COC[C@@H]2CCC[C@@]23CNCCO3)ccn1 | 8.32
26 | Cc1nc(C(C)Nc2ncnc3c2CCNCC3)c(C)s1 (centres undefined) | -4.99
27 | CSc1ccc(CN(C(=O)c2cc(=O)[nH]c(=O)[nH]2)C2CC2)cc1 | 6.51
28 | Cc1ncc2c(n1)CN(CC(=O)Nc1cccnc1)CC2 | 17.5
29 | CC(=O)c1ccc(CNC(=O)c2c(C)cc(C)cc2C)nc1C | 3.34
30 | COc1cccc(C(=O)N2CCCCC2c2nccs2)c1OC (centres undefined) | 2.23
31 | Cn1c(CN2CCCC2c2noc(C3CC3)n2)cc(=O)n(C)c1=O (centres undefined) | -9.32
32 | NCC(=O)N1CCC(c2cccc(Oc3ccccc3)n2)CC1 | -7.22
33 | O[C@@H]1C[C@H]2CN(Cc3ccccc3Cl)[C@H](Cc3ccccc3)CN2C1 | 25.5
34 | COc1cccc(-c2nc(CNC(C)Cn3cccn3)cs2)c1 (centres undefined) | 12.8
35 | CN(Cc1ccncn1)C(=O)c1cccc(CCC(C)(C)O)c1 | -2.23
36 | CCN1C[C@H]2CCN(C(=O)c3cc[nH]n3)CC[C@H]2S1(=O)=O | -14.6
37 | Cc1cccc(N2CCc3ncc(CNc4ccccn4)n3CC2)n1 | -3.22
38 | N#Cc1cccc(OC23CCCN(CC2)C3)c1 (centres undefined) | 13.6
39 | CCCC(=O)N(C)Cc1cccc(OC(C)C)c1 | 9.69
40 | CC(C)(CNCc1ccc(OCc2cscn2)cc1)C(N)=O | 2.2
41 | CC(C)(C)C(=O)N1CCC(c2nc(O)cc(-c3ccncc3)n2)CC1 | -1.05
42 | CN(C)C(=O)C1(c2cnccn2)CCCN1C(=O)Cc1ccsc1 (centres undefined) | -5.5
43 | O=C(Nc1cccc(CN2CCOC2=O)c1)N1CCCCCC1 | 35.8
44 | Cc1cc(CN(C)C2CCCN(Cc3noc(C4CC4)n3)C2)on1 (centres undefined) | -9.71
45 | COc1ncccc1CNC(=O)c1cnccn1 | -12.4
46 | CCO[C@H]1CN(C)C[C@@H]1NC(=O)c1c[nH]nc1C1CCCCC1 | 21.2

Row | SMILES | cytotoxicity at 70.5 h [%]
47 | Cc1ccc(CNC2CC3(CCN(CCO)CC3)c3ccccc32)s1 (centres undefined) | 4.93
48 | CN1CCCCC1c1ncc2c(n1)CCN(Cc1ccc(F)cc1)C2 (centres undefined) | -5.99
49 | Cc1cccc(N2CCC(N3CCC4(CCCNC4=O)C3)CC2)c1C (centres undefined) | 10.3
50 | CCOCc1nc(CSc2ccncc2)n(C2CCN(C)CC2)n1 | 13
51 | CC(C)CC(NC(=O)c1cccc(F)c1F)C(=O)Nc1cc[nH]n1 (centres undefined) | -1.3
52 | COCCN1C(=O)C2(CCC(C(=O)Nc3ccc(C)cc3)CC2)N=C1C (centres undefined) | 10.5
53 | CS(=O)(=O)N1CCN(C(=O)CCC2CCCO2)CC1 (centres undefined) | -14.1
54 | CCC(=O)N1CCN(c2nc(C)nc3c(C)nn(C)c23)CC1 | -6.94
55 | CN1[C@H](Cn2cncn2)C[C@@H]2CN(Cc3ccsc3)CC[C@@H]21 | -3.81
56 | CCc1ccc(CN2C[C@H](OC)[C@H]3COC[C@H]32)o1 | -0.659
57 | Cc1cc(NC(=O)CNC(C)(C)c2ccc3c(c2)OCO3)on1 | -2.77
58 | Cn1nc(CN2CCOCC2)c2c1CN(Cc1ccsc1)C2 | -5.85
59 | N#Cc1cccc(NC(=O)CCn2nc(-c3cccs3)oc2=O)c1 | -11
60 | Cn1ccnc1CN1C(=O)CO[C@H]2CN(Cc3ccccc3O)C[C@H]21 | -1.59
61 | O=c1ccc2c(n1Cc1ccncc1)CCN(Cc1ccoc1)CC2 | 1.47
62 | CCn1c(C)cc(C(=O)N2CCC(Nc3ccc(C)nn3)CC2)c1C | -91.3
63 | CN1CCN(C(=O)c2cccs2)Cc2ccccc21 | -0.544
64 | Cc1cc(C2CCCN(Cc3noc(Cc4ccccc4)n3)C2)n[nH]1 (centres undefined) | -1
65 | Cc1noc(C)c1C(=O)NCC1CCCCN1Cc1ccccc1 (centres undefined) | -1.55
66 | c1cc(-c2noc(-c3cc(C4CC4)[nH]n3)n2)cc(N2CCCCC2)n1 | -0.746
67 | NC(=O)Cn1nc(-c2ccccc2F)ccc1=O | -9.13
68 | CCCS(=O)(=O)N1C[C@@H]2CN(Cc3ccco3)CCO[C@@H]2C1 | -2.23
69 | CC(=O)N(C)CC(=O)Nc1ccc(C)cc1OCc1ccccc1 | -1.76

Row | SMILES | cytotoxicity at 70.5 h [%]
70 | CCC1=NOC(CNCc2cnc(-c3ccccc3C)s2)C1 (centres undefined) | -6.62
71 | Cc1nc(CNC(C(=O)N2CCOCC2)C(C)C)no1 (centres undefined) | -6.16
72 | Cc1ccc(-c2ncc(C(=O)N3CCCN4CCC[C@H]4C3)c(O)n2)cc1 | 5.02
73 | NCCc1c(-c2ccccc2)[nH][nH]c1=O | -7.56
74 | CC(C)CCC(=O)NCc1ccc(N2CCCCC2)cc1 | -9.32
75 | Cc1cnc(C)c(N2CCN(CCCc3ccncc3)CC2)n1 | 6.37
76 | CNC(=O)CC1CC2(CCN(c3ncccn3)CC2)c2ccccc21 (centres undefined) | -6.77
77 | CCOn1c(SC(C)C)nc2ccccc2c1=O | -8.12
78 | Cc1cc(S(=O)(=O)N2CCCc3ccc(F)cc32)sc1C(=O)O | -2.82
79 | O=C(Nc1ccc(Br)cc1F)c1ccc(N2CCOCC2)nn1 | -6.45
80 | O=C(c1ccco1)N1C(CO)[C@]2(O)CC[C@H]1CC2 (some centres undefined) | -3.21
81 | COc1ccc(CN2CC(n3cccn3)C2)cc1F | -2.24
82 | c1cnnc(NCC2CN(CC3CCOCC3)CCO2)c1 (centres undefined) | -5.6
83 | COC(=O)N1CCC(Nc2ccc(Cl)c(C#N)n2)CC1 | -0.879
84 | O=C(O)c1ccc(S(=O)(=O)Nc2c(F)cccc2-n2cccn2)cc1 | -1.35
85 | CC(C)c1nc(C2CCCN2c2ccnc(C3CCCC3)n2)no1 (centres undefined) | -6.75
86 | CNC(C(=O)N1CCC(c2nccn2C(C)C)CC1)c1ccccc1 (centres undefined) | -8.05
87 | CC(C)CCN1CC2(CCCN(C(=O)c3cscn3)C2)CCC1=O (centres undefined) | -8.72
88 | CCOC(=O)C1=NOC(Cc2cc(OC)c3c(c2)OCO3)C1 (centres undefined) | 18.8
89 | Cc1ccc(NC(=O)C2CCc3ccccc3N2)cc1 (centres undefined) | 15.2
90 | Cn1ccnc1C(=O)NC[C@@H]1OC[C@H]2CN(CC3CC3)CC[C@H]21 | -9.31
91 | Cc1ccc(OCCC(=O)NCCCN2CCCC2=O)c(C)c1 | 17.8
92 | O=C(NC1CC1)[C@@H]1CCO[C@@H]2CCN(C3CCCC3)C[C@H]21 | -0.698

Row | SMILES | cytotoxicity at 70.5 h [%]
93 | CCn1cc(CN(C)S(=O)(=O)c2ccc(C)c(C)c2)cn1 | 0.0869
94 | c1ccc(N2CCc3ncnc(C4CC4)c3CC2)nc1 | -12.5
95 | O=C(Cn1ccc(=O)[nH]c1=O)NCc1cccnc1OCC(F)(F)F | -10.1
96 | CC(=O)c1ccc(-c2cnn(CC(=O)Nc3ccnn3C)c2)nc1 | -9.08
97 | Cc1cc(C(=O)N2CCCCC2c2nc3cc(F)ccc3[nH]2)nn1C (centres undefined) | -6.6
98 | O=C(NCCc1nncn1C1CC1)C1(Cc2ccccc2)CCC1 | -1.53
99 | CN(CCO)CC1COCCN1C(=O)C1(c2cccs2)CCCC1 (centres undefined) | -1
100 | CN1CC(=O)N(c2cccc(F)c2)CC12CCN(Cc1nccs1)C2 (centres undefined) | -1.43
101 | CCc1nc(CC(=O)NC(C#N)CC(C)C)cs1 (centres undefined) | -0.177
102 | CN1CCOC(CNCC(=O)NCCc2ccc(F)cc2)C1 (centres undefined) | -3.15
103 | CCSc1ccc(C(=O)Nc2c(C)nn(C(C)C)c2C)cn1 | 14.1
104 | CSCCC(=O)N[C@H]1CC[C@H](Nc2nccc(-c3ccncc3)n2)C1 | 23.8
105 | CC(C)c1nc(CN(C)C(=O)Cn2nc3ccccc3n2)no1 | -10.4
106 | Cc1nnc([C@@]23CCO[C@@H]2CCN(Cc2nccs2)C3)o1 | -9.1
107 | COCC1c2c(cnn2C)CCN1C(=O)c1cccn1C (centres undefined) | -6.36
108 | COCc1noc(-c2ccc(N(C)Cc3ccc(C)o3)nc2)n1 | -2.55
109 | Cc1ccc2oc(C(=O)N3CCCC(n4nc(C)cc4C)C3)cc2n1 (centres undefined) | -2.12
110 | CN1CCN(S(=O)(=O)c2ccc(C(=O)N3CC[C@@H](O)C3)cc2)CC1=O | -5.98
111 | Cc1cc(C)n(CC(C)NC(=O)C(C)(C)c2ccccc2F)n1 (centres undefined) | 6.99
112 | Cc1ccc(C2CSCCN2C(=O)c2ccncc2)cc1 (centres undefined) | 0.0663
113 | CC(=O)N(Cc1ncc(C)o1)C1CCN(Cc2csc(C)n2)C1 (centres undefined) | -1.47
114 | CCOCC(=O)NCC(Cc1cccc(F)c1)N1CCCCC1=O (centres undefined) | 30
